According to patent US8765710B2, “2′,4′-substituted nucleosides as antiviral agents” (Gilead Pharmasset LLC, priority 2007, dated 2014):

How the values were obtained:
[1] = system: HCV S282T cells; assay: HCV inhibition in S282T cells; type: cell-based; details: Hepatitis C virus, read-out: HCV Inhibition S282T Cells EC90
[2] = Toxicity, luciferase assay in P4 CCR5-luc cells; type: cell-based; details: human, read-out: Cytotoxicity CC50, P4 Cells
Protocol: P4 CCR5-luc cells are plated at 10,000 cells per well (100 ul) in 96 well Opaque Assay plates and incubated overnight at 37° C. The next day, the media is aspirated from the plates and replaced by 200 ul of compound freshly diluted into media in 5 fold dilutions from 100 μM to 0.0062 μM. After 4 days of incubation at 37° C., the luciferase activity is measured in the cell lysate using the Bright Glow kit from Promega and the luminescence measured using a Victor apparatus from Perkin-Elmer.

[3] = system: HIV (NL43 wild type virus) in P4 CCR5-luc cells; assay: HIV titration to determine EC50 on P4 CCR5-luc cells; type: cell-based; details: Human immunodeficiency virus 1, NL43, read-out: HIV Inhibition P4 Cells EC50
Protocol: HIV-Titration of PSI Activity to Determine EC50 on P4 CCR-luc Cells.
P4 CCR5-luc cells are plated at 10,000 cells per well (100 μl) in 96 well Opaque Assay plates and incubated overnight at 37° C. The next day, the media is aspirated from the plates and replaced by 100 ul of compound freshly diluted into appropriate media (DMEM, 10% FBS, G418 500 μg/ml, penicillin/streptomycin) at 2× final concentrations in 5 fold dilutions, usually from 2×100 μM to 2×0.032 uM, in triplicate, for 4 hours at 37° C. The cells are then infected with 100 ul NL43 wild type or mutant virus, at 5 ng to 20 ng of p24 per well, in the presence of 2×20 ug/ml of DEAE-Dextran, for 40-42 hours. Non infected and infected no drug controls are always present in 12plicate on each plate. An AZT control is tested in parallel for each experiment. After infection, the beta-gal is quantitated in the cell lysate using the Galacto-Star kit from Applied Biosystems and the luminescence measured using a Victor apparatus from Perkin-Elmer. The EC50 (Effective Concentration) is calculated using a Microsoft® Excel® spreadsheet that calculates the concentration necessary to inhibit the 50% of the infection. The assay is performed in at least 2 independent experiments.

[4] = system: HIV (NL43 virus) in P4CCR5luc cells; assay: HIV screen: primary screening at 50 μM in P4CCR5luc cells (beta-gal readout); type: cell-based; details: Human immunodeficiency virus 1, NL43, P4 cells
Protocol: HIV screen: Primary Screening of PSI compounds are tested for antiviral HIV activity at 50 μM. The cells used are P4CCR5luc cells; they are human HIV indicator cells, which are derived from Hela cells, express CD4, CXCR4, CCR5, luciferase, and a beta-gal gene under the control of HIV-1 LTR. P4CCR5 luc cells are cultivated in DMEM, 10% FBS, Penicillin, Streptomycin, and G418 at 500 μg/ml. 100 μl of P4 CCR5-luc cells are plated at 10,000 cells per well in 96 well Opaque Assay plates and incubated overnight at 37° C. The next day, the media is aspirated from the plates and replaced by 100 μl of compound freshly diluted into media at 2×50 uM, in triplicate, for 4 hours at 37° C. The cells are then infected with 100 ul NL43 virus at 5 ng of p24 per well, in the presence of 2×20 ug/ml of DEAE-Dextran for 40-42 hours. Non infected, infected no drug and AZT controls are always present in triplicate on each plate. After infection the beta-gal is quantitated using the Galacto-Star kit from Applied Biosystems using the manufacturer instructions and the luminescence measured using a Victor apparatus from Perkin-Elmer. Results are represented as percentage inhibition compare to untreated cells. The assays are performed in 2 to 3 independent experiments.

[5] = MTS cytotoxicity assay, BxPC3; type: cell-based; details: human, BxPC3 (pancreatic) cells
Protocol: (§1) Human cells lines Huh 7 and HepG2 (liver), BxPC3 (pancreatic) and CEM (lymphoid) are used for the MTS assays in 96 wells plates. Drugs are freshly diluted in media at 2×100 μM, 50 μM, 25 μM, 10 μM, 5 μM, 1 μM and 50 μl is dispensed in triplicate in the plates. The wells at the periphery of the plate contain 100 ul of media only and will be the blank controls. A replicate control with no drug is always performed in each plate. 50 μl of cells are added to the plate, at 2000 cells per well for Huh 7, HepG2 and PxPC3, and 5000 cells per well for CEM cells. No cells are added at the periphery of the plate. The media used for Huh 7, HepG2 and BxPC3 cells is DMEM with 10% FBS, and Penicillin/streptomycin, and RPMI with 10% FBS, and Penicillin/streptomycin for CEM cells. After 8 days of incubation at 37° C., 20 μl of MTS dye from the CellTiter 96 Aqueous One Solution Cell Proliferation Assay kit from Promega is added to each well and the plate incubated for 2 h at 37° C. The absorbance is then read at 490 nm using the microplate reader E1800 from Biotek. The signal is calculated by subtracting the absorbance measured in the blank controls. The CC50 (Cytotoxic Concentration) value is then determined by comparing the signal obtained with the no-drug cell control with the treated cells and calculating the concentration of drug necessary to inhibit 50% of the signal in the wells treated with drugs.

[6] = MTS cytotoxicity assay, HepG2; type: cell-based; details: human, HepG2 (liver) cells
Protocol: as §1

[7] = Cytotoxicity in PBMC; type: cell-based
[8] = MTS cytotoxicity assay, Huh 7; type: cell-based; details: human, Huh 7 (liver) cells
Protocol: as §1

[9] = MTS cytotoxicity assay, CEM; type: cell-based; details: human, CEM (lymphoid) cells
Protocol: as §1

[10] = system: HBV in HepG2-AD38 cell line; assay: HBV AD38 assay (HBV DNA in supernatant by real time PCR); type: cell-based; details: Hepatitis B virus; read-out: HBV Inhibition EC90
Protocol: Biological Assays HBV AD38 Assay
The materials required for the assay comprise the following:
The HepG2-AD38 cell line.
The culture medium for HepG2-AD38 comprises DMEM-F/12, 10% fetal bovine serum, 100 IU/ml/100 ug/ml of Penicillin/streptomycin, 50 μg/ml kanamycin, 0.3 μg/ml tetracycline, and 200 μg/ml G418.
The assay medium for HepG2-AD38 comprises DMEM-F/12, 10% fetal bovine serum, 1001 U/ml/100 μg/ml of penicillin/streptomycin, 50 μg/ml kanamycin, and 200 μg/ml G418 Further materials comprise Phosphate buffered saline (PBS), Biocoated 96 well plates, DNeasy 96 tissue kit (Qiagen), QIAvac 96 vacuum manifold, Micro amp optical 96 well reaction plates (Applied Biosystems), Micro amp optical caps (Applied Biosystems), Tagman Universal PCR Master Mix (Applied Biosystems), and a 7700 Sequence detector (Applied Biosystems),
The primers and probes for HBV DNA comprise the 1125 nM forward primer (GGACCCCTGCTCGTGTTACA) (SEQ ID NO:1), the 1125 nM reverse primer (GAGAGAAGTCCACCACGAGTCTAGA) (SEQ ID NO:2), and the 250 nM probe (FAM-TGTTGACAAGAATCCTCACAATACCAC) (SEQ ID NO:3).
Seed 5×10^4 cells/well in 200 μl of culture medium in a 96 well biocoated plate and incubate the plate at 37° C. with 5% CO2. […]

[11] = system: rRNA of Huh 7 clone A cells; assay: HCV replicon assay, rRNA internal control (cytotoxicity, ΔCt rRNA); type: cell-based, human
Protocol: (§2) HCV replicon RNA-containing Huh 7 cells (clone A cells; Apath, LLC, St. Louis, Mo.) were kept at exponential growth in Dulbecco's modified Eagle's medium (high glucose) containing 10% fetal bovine serum, 4 mM L-glutamine and 1 mM sodium pyruvate, 1× nonessential amino acids, and G418 (1,000iug/m1). Antiviral assays were performed in the same medium without G418. Cells were seeded in a 96-well plate at 1,500 cells per well, and test compounds were added immediately after seeding. Incubation time 4 days. At the end of the incubation step, total cellular RNA was isolated (RNeasy 96 kit; Qiagen). Replicon RNA and an internal control (TaqMan rRNA control reagents; Applied Biosystems) were amplified in a single-step multiplex RT-PCR protocol as recommended by the manufacturer. The HCV primers and probe were designed with Primer Express software (Applied Biosystems) and covered highly conserved 5′-untranslated region (UTR) sequences (sense primer: • 5′-AGCCATGGCGTTAGTA(T)GAGTGT-3′ (SEQ ID NO:4); antisense primer: • 5′-TTCCGCAGACCACTATGG-3′ (SEQ ID NO:5); and probe: • 5′-FAM-[…]-TAMRA-3′ (SEQ ID NO:6)).
(§3) To express the antiviral effectiveness of a compound, the threshold RT-PCR cycle of the test compound was subtracted from the average threshold RT-PCR cycle of the no-drug control (ΔCtHCV). […]

[12] = system: HCV replicon RNA in Huh 7 cells (clone A cells); assay: HCV replicon assay, clone A cells (replicon RNA by RT-PCR); type: cell-based
Protocol: as §2, §3

In the case of C[C@@H]1[C@H](n2ccc(N)nc2=O)O[C@@](CO)(N=[N+]=[N-])[C@H]1O, the EC90 [1] is reported as 73.1 µM, the CC50 at 4 days [2] is reported as > 100 µM and the EC50 [3] is reported as 0.18 µM. The inhibition at 50 µM [4] was 100%, the CC50 at 8 days [5] was 400 µM and the CC50 at 8 days [6] was 300 µM. The CC50 [7] was > 100 µM, the CC50 at 8 days [8] was > 100 µM and the CC50 at 8 days [9] was 400 µM. For the same compound, the EC90 [10] was 1.62 µM, the “Screen HCV Clone A Cells −log10 at 50 μM (Rbz)” value [11] was −0.59 log10 and the “Screen HCV Clone A Cells −log10 at 50 μM (HCV)” value ([12]; 50 μM, clone A cells, HCV RNA) was −1.4 log10. For the same compound, the EC90 ([12]; Hepatitis C virus, Huh-7, read-out: HCV Inhibition Clone A cells EC90) was 7.85 µM.
